Experiments:
[1] = molecular target: T1, GABAA receptor α1β2γ2 (Homo sapiens, UniProt P14867+P47870); assay: Patch clamp electrophysiology, Qpatch in Ltk cells; format: cell-based; settings: 10 μM test article, GABA EC20 2 μM, read-out: GABA (α1β2γ2) Qpatch in Ltk, % efficacy at 10 μM
T1 construct: expressed in transfected cells
Description: (§1) Patch Clamp Electrophysiology of Recombinant α1β2γ2 and α4β3δ GABAA Receptors
(§2) Cellular electrophysiology is used to measure the pharmacological properties of our GABAA receptor modulators in heterologous cell systems. Each compound is tested for its ability to affect GABA mediated currents at a submaximal agonist dose (GABA EC20=2 μM). LTK cells are stably transfected with the α1β2γ2 subunits of the GABA receptor and CHO cells are transiently transfected with the α4β3δ subunits via the Lipofecatamine method. Cells were passaged at a confluence of about 50-80% and then seeded onto 35 mm sterile culture dishes containing 2 ml culture complete medium without antibiotics or antimycotics. Confluent clusters of cells are electrically coupled (Pritchett et al., Science, 1988, 242, 1306-1308.). Because responses in distant cells are not adequately voltage clamped and because of uncertainties about the extent of coupling (Verdoorn et al., Neuron 1990, 4, 919-928.), cells were cultivated at a density that enables the recording of single cells (without visible connections to other cells).
(§3) Whole cell currents were measured with HEKA EPC-10 amplifiers using PatchMaster software or by using the high throughput QPatch platform (Sophion). Bath solution for all experiments contained (in mM): NaCl 137 mM, KCl 4 mM, CaCl2 1.8 mM, MgCl2 1 mM, HEPES 10 mM, D-Glucose 10 mM, pH (NaOH) 7.4. In some cases 0.005% cremophor was also added. Intracellular (pipette) solution contained: KCl 130 mM, MgCl2 1 mM, Mg-ATP 5 mM, HEPES 10 mM, EGTA 5 mM, pH 7.2. During experiments, cells and solutions were maintained at room temperature (19° C.-30° C.). For manual patch clamp recordings, cell culture dishes were placed on the dish holder of the microscope and continuously perfused (1 ml/min) with bath solution. After formation of a Gigaohm seal between the patch electrodes and the cell (pipette resistance range: 2.5 MΩ-6.0 MΩ; seal resistance range: >1 GΩ) the cell membrane across the pipette tip was ruptured to assure electrical access to the cell interior (whole-cell patch-configuration). For experiments using the QPatch system, cells were transferred as suspension to the QPatch system in the bath solution and automated whole cell recordings were performed.
(§4) Cells were voltage clamped at a holding potential of −80 mV. For the analysis of test articles, GABA receptors were stimulated by 2 μM GABA after sequential pre-incubation of increasing concentrations of the test article. Pre-incubation duration was 30 s and the duration of the GABA stimulus was 2 s. Test articles were dissolved in DMSO to form stock solutions (10 mM). Test articles were diluted to 0.01, 0.1, 1, and 10 μM in bath solution. All concentrations of test articles were tested on each cell. The relative percentage potentiation was defined as the peak amplitude in response to GABA EC20 in the presence of the test article divided by the peak amplitude in response to GABA EC20 alone, multiplied by 100.

[2] = molecular target: T2, GABAA receptor α4β3δ (Homo sapiens, UniProt P28472+P48169); assay: Patch clamp electrophysiology, manual patch in CHO cells; format: cell-based; settings: 10 μM test article, GABA EC20 2 μM, read-out: GABA (α4β3δ) Manual patch in CHO, % efficacy at 10 μM
T2 construct: expressed in transfected cells; host or cells: CHO cells (transient, lipofection)
T2 sequence (P48169 36-554): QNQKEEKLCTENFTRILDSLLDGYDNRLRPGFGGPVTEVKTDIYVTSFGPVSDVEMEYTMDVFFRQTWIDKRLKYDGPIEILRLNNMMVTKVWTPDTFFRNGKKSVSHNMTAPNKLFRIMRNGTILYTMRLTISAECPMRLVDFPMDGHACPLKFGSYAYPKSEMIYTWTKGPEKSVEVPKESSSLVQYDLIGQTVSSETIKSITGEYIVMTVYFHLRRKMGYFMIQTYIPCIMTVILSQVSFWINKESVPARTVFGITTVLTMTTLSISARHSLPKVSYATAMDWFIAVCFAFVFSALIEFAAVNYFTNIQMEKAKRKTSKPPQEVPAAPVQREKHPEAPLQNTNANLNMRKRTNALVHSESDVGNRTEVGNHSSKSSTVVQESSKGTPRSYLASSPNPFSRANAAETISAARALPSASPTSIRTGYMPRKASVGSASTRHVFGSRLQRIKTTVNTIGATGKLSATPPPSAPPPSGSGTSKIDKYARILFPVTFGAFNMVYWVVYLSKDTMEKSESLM
T2 sequence (P28472 26-473): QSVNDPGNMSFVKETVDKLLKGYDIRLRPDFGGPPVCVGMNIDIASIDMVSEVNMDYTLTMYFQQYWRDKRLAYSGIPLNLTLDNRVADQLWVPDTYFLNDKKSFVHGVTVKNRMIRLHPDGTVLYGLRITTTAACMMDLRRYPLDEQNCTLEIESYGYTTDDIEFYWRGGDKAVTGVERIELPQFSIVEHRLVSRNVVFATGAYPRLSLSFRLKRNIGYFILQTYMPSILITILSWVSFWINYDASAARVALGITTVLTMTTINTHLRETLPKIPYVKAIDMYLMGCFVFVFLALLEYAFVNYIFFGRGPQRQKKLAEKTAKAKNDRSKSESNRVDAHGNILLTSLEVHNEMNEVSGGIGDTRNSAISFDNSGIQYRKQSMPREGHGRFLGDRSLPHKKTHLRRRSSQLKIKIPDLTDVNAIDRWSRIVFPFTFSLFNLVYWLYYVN
T2 sequence (O14764 25-452 partner): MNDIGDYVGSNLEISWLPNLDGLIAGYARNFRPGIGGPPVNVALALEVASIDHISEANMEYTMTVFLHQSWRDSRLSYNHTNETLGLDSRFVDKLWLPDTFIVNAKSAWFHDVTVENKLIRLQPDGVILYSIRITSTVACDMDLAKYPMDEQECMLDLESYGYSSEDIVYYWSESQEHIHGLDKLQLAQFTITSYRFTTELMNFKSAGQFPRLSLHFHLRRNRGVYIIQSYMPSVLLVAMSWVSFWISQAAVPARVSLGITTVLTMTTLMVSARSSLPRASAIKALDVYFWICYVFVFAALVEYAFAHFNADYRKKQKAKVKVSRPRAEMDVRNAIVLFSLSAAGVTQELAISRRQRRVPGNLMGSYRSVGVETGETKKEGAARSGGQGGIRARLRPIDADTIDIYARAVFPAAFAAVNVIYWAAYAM
Description: as §1, §2, §3, §4

[3] = molecular target: [35S]-TBPS binding, rat brain cortical membranes (GABA receptor complex); assay: Steroid inhibition of [35S]-TBPS binding; settings: 3 nM [35S]-TBPS, 5 μM GABA
Description: Steroid Inhibition of TBPS Binding
[35S]-t-Butylbicyclophosphorothionate (TBPS) binding assays using rat brain cortical membranes in the presence of 5 μM GABA has been described (Gee et al, J. Pharmacol. Exp. Ther. 1987, 241, 346-353; Hawkinson et al, Mol. Pharmacol. 1994, 46, 977-985; Lewin, A. H et al., Mol. Pharmacol. 1989, 35, 189-194).
Briefly, cortices are rapidly removed following decapitation of carbon dioxide-anesthetized Sprague-Dawley rats (200-250 g). The cortices are homogenized in 10 volumes of ice-cold 0.32 M sucrose using a glass/teflon homogenizer and centrifuged at 1500×g for 10 min at 4° C. The resultant supernatants are centrifuged at 10,000×g for 20 min at 4° C. to obtain the P2 pellets. The P2 pellets are resuspended in 200 mM NaCl/50 mM Na-K phosphate pH 7.4 buffer and centrifuged at 10,000×g for 10 min at 4° C. This washing procedure is repeated twice and the pellets are resuspended in 10 volumes of buffer. Aliquots (100 μL) of the membrane suspensions are incubated with 3 nM [^35S]-TBPS and 5 μL aliquots of test drug dissolved in dimethyl sulfoxide (DMSO) (final 0.5%) in the presence of 5 μM GABA. The incubation is brought to a final volume of 1.0 mL with buffer. Nonspecific binding is determined in the presence of 2 μM unlabeled TBPS and ranged from 15 to 25%. Following a 90 min incubation at room temp, the assays are terminated by filtration through glass fiber filters (Schleicher and Schuell No. 32) using a cell harvester (Brandel) and rinsed three times with ice-cold buffer. Filter bound radioactivity is measured by liquid scintillation spectrometry. Non-linear curve fitting of the overall data for each drug averaged for each concentration is done using Prism (GraphPad). […] The concentration of test compound producing 50% inhibition (IC50) of specific binding and the maximal extent of inhibition (Imax) are determined for the individual experiments with the same model used for the overall data and then the means±SEM.s of the individual experiments are calculated.
Various compounds are or can be screened to determine their potential as modulators of [^35S]-TBPS binding in vitro. These assays are or can be performed in accordance with the above discussed procedures.

[4] = molecular target: T3, GABAA-R (Homo sapiens, UniProt P14867+P47870); assay: Electrophysiological evaluation at GABAA-R (Table 2); format: cell-based; settings: GABAA-R electrophysiology; for EC50: read-out: EC50
T3 sequence (P14867 1-456): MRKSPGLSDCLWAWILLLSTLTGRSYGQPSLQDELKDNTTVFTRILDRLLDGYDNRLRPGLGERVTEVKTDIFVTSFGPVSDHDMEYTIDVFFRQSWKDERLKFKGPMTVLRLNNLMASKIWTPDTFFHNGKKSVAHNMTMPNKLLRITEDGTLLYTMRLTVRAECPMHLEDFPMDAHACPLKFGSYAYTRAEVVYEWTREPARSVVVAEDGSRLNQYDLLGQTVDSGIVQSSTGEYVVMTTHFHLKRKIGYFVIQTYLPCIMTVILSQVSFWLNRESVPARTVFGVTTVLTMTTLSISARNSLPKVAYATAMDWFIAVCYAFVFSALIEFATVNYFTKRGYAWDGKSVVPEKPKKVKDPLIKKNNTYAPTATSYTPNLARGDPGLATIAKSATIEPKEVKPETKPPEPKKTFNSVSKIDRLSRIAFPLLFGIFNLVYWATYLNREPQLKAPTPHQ
T3 sequence (P47870 1-512): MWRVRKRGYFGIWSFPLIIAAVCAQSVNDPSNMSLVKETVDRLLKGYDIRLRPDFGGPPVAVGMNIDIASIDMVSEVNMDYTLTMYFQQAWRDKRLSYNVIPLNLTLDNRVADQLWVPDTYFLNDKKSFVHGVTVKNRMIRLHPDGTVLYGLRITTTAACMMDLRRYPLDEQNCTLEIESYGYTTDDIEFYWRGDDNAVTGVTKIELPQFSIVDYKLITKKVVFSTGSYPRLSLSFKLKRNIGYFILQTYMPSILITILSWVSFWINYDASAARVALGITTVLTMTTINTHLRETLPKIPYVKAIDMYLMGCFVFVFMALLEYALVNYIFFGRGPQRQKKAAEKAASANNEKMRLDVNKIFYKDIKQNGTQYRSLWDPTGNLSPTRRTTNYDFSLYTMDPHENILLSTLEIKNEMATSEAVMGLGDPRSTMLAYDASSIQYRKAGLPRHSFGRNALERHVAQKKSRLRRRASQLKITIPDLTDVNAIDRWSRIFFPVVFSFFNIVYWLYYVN
Description: as §1, §2, §3, §4

T1 sequence (P18507 40-475 partner, one chain of several): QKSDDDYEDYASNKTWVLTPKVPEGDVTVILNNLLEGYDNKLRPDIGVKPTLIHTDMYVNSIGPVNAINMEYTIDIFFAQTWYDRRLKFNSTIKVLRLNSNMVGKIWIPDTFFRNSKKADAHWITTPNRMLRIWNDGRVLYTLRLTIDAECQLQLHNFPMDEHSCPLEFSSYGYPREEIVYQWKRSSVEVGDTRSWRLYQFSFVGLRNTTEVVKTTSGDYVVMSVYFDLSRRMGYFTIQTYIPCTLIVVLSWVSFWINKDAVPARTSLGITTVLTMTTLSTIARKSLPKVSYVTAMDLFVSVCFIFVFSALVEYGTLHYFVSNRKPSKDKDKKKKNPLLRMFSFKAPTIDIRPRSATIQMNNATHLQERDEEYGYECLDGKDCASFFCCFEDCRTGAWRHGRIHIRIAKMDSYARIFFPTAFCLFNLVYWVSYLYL

| SMILES | Emax at 10 µM [1] | Emax at 10 µM [2] | IC50 [3] | Emax [4] | EC50 [4] |
| --- | --- | --- | --- | --- | --- |
| C[C@@]1(O)CC[C@H]2[C@@H](CC[C@@H]3[C@@H]2CC[C@]2(C)[C@@H](C(=O)Cn4cc(C#N)cn4)CC[C@@H]32)C1 [SB-2] | 100 to 500% | 100 to 500% |  |  |  |
| C[C@@]1(O)CC[C@H]2[C@H](CC[C@@H]3[C@@H]2CC[C@]2(C)[C@@H](C(=O)Cn4ccc(C(F)(F)F)n4)CC[C@@H]32)C1 [SA-1] | > 500% |  | < 10 nM | 500 to 1000% | 1000 to 2000 nM |
| COC[C@@]1(O)CC[C@H]2[C@@H](CC[C@@H]3[C@@H]2CC[C@]2(C)[C@@H](C(=O)Cn4cc(C#N)cn4)CC[C@@H]32)C1 [SB-5] | > 500% | 100 to 500% | 10 to 50 nM |  |  |
| Cc1ccn(CC(=O)[C@H]2CC[C@H]3[C@@H]4CC[C@@H]5C[C@](C)(O)CC[C@@H]5[C@H]4CC[C@]23C)n1 [SA-11] | > 500% |  | 10 to 50 nM | 500 to 1000% | 1000 to 2000 nM |
| C[C@@]1(O)CC[C@H]2[C@H](CC[C@@H]3[C@@H]2CC[C@]2(C)[C@@H](C(=O)Cn4cc(Cl)cn4)CC[C@@H]32)C1 [SA-7] | > 500% | > 500% | 10 to 50 nM | 0 to 500% | 1000 to 2000 nM |
| C[C@@]1(O)CC[C@H]2[C@H](CC[C@@H]3[C@@H]2CC[C@]2(C)[C@@H](C(=O)Cn4cc(Br)cn4)CC[C@@H]32)C1 [SA-9] | 100 to 500% | > 500% | 10 to 50 nM | 0 to 500% | 100 to 500 nM |
| COC[C@@]1(O)CC[C@H]2[C@H](CC[C@@H]3[C@@H]2CC[C@]2(C)[C@@H](C(=O)Cn4cc(C#N)cn4)CC[C@@H]32)C1 [SA-24] | > 500% | > 500% | 10 to 50 nM |  |  |
| C[C@]12CC[C@H]3[C@@H](CC[C@@H]4C[C@@](O)(CF)CC[C@@H]43)[C@@H]1CC[C@@H]2C(=O)Cn1cc(C#N)cn1 [SA-32] | > 500% | > 500% | 10 to 50 nM |  |  |
| CC(=O)c1ccn(CC(=O)[C@H]2CC[C@H]3[C@@H]4CC[C@@H]5C[C@](C)(O)CC[C@@H]5[C@H]4CC[C@]23C)n1 [SA-5] | > 500% |  | < 10 nM |  | > 2000 nM |
| Cc1ccnn1CC(=O)[C@H]1CC[C@H]2[C@@H]3CC[C@@H]4C[C@](C)(O)CC[C@@H]4[C@H]3CC[C@]12C [SA-10] | 100 to 500% |  | 50 to 100 nM | 0 to 500% | > 2000 nM |
| C[C@@]1(O)CC[C@@H]2[C@H]3CC[C@]4(C)[C@@H](C(=O)Cn5cc(S(C)(=O)=O)cn5)CC[C@H]4[C@@H]3C[C@@H](F)[C@H]2C1 [SB-15] | 100 to 500% | > 500% |  |  |  |
| C[C@@]1(O)CC[C@@H]2[C@H]3CC[C@]4(C)[C@@H](C(=O)Cn5cc(C#N)cn5)CC[C@H]4[C@@H]3C[C@@H](F)[C@H]2C1 [SB-11] | 100 to 500% | > 500% |  |  |  |
| C[C@@]1(O)CC[C@H]2[C@H](CC[C@@H]3[C@@H]2CC[C@]2(C)[C@@H](C(=O)Cn4nccc4C(F)(F)F)CC[C@@H]32)C1 [SA-2] | > 500% |  | 50 to 100 nM | 500 to 1000% | > 2000 nM |
| C[C@@]1(O)CC[C@H]2[C@@H](CC[C@@H]3[C@@H]2CC[C@]2(C)[C@@H](C(=O)Cn4cccn4)CC[C@@H]32)C1 [SB-1] | 100 to 500% | 100 to 500% | 100 to 500 nM |  |  |
| C[C@@]1(O)CC[C@H]2[C@H](CC[C@@H]3[C@@H]2CC[C@]2(C)[C@@H](C(=O)Cn4cc([N+](=O)[O-])cn4)CC[C@@H]32)C1 [SA-8] | 100 to 500% |  | 10 to 50 nM | 0 to 500% | 1000 to 2000 nM |
| C[C@@]1(O)CC[C@@H]2[C@H]3CC[C@]4(C)[C@@H](C(=O)Cn5cccn5)CC[C@H]4[C@@H]3C[C@@H](F)[C@H]2C1 [SB-10] | 100 to 500% | 100 to 500% | 100 to 500 nM |  |  |
